Holding throughout (format): cell-based
The subject of assay [1] is SARS-CoV-2 (Wuhan variant). Description: microbe, parasite or virus in culture. Conditions: for inhibition of SARS-CoV-2 replication in virus-infected cells: 2 and 10 µM, Vero cells.
The subject of assay [2] is SARS-CoV-2 variants Alpha (B.1.1.7), Beta (B.1.351), Gamma (p.1), Delta (B.1.617.2), and Omicron (B.1.1.529). Conditions: 1 and 10 µM, 48 h, Vero cells.
Assay [3] deals with SARS-CoV-2 (Wuhan variant). Description: Virucidal activity against SARS-CoV-2 (plaque assay). Particulars: 10 µM, 120 min at 37 °C in the dark.
Setting [4] is: Severe acute respiratory syndrome coronavirus 2, Vero, 48 h, read-out: App. EC50.
Where [5] appears, read: Severe acute respiratory syndrome coronavirus 2, Vero, read-out: EC50.

Read-outs that look alike come from different tables or passages of the source.

In general, EC50 refers to the concentration giving half of the maximal effect. `CC(C)(C)C(=O)OCn1c(=O)c(C#Cc2ccc3c4cccc5cccc(c6cccc2c63)c54)cn(CC(=O)NC[C@@H](O)C(C)(C)CO)c1=O` [Compound 7]: in assay [1], the “inhibition of SARS-CoV-2 replication in virus-infected cells” value was “complete inhibition”. The EC50 in assay [1] (setting [4]) was determined as 1.17 µM; in assay [1] (setting [5]) it was 0.417 µM.
Take `O=c1[nH]c(=O)n([C@@H]2O[C@H](CO)[C@@H](O)[C@@H]2O)cc1C#Cc1ccc2c3cccc4cccc(c5cccc1c52)c43` [Compound 1, 5-(perylen-3-yl)ethynyl-arabino-uridine]: the figures for the EC50 in assay [1] (setting [4]), in assay [1] (setting [5]) and in assay [1] (read-out: EC50) were 1.12 µM, 0.406 µM and 0.406 µM, respectively.
As for `O=C(c1ccc(-c2ccc3c4cccc5cccc(c6cccc2c63)c54)s1)N(CCO)CCO` [Compound 18], the EC50 worked out at 0.132 µM in assay [1] (setting [4]), 0.019 µM in assay [1] (setting [5]) and 0.0191 µM in assay [1] (read-out: EC50).
The matching figures for `CC(C)(C)C(=O)OCn1c(=O)c(C#Cc2ccc3c4cccc5cccc(c6cccc2c63)c54)cn(CC(=O)NCCCCCCO)c1=O` [Compound 12]: above 5 µM, 0.812 µM and 0.812 µM.
`CC(C)(C)C(=O)OCn1c(=O)c(C#Cc2ccc3c4cccc5cccc(c6cccc2c63)c54)cn(CC(=O)N(CCO)CCO)c1=O` [Compound 13]: the “inhibition of SARS-CoV-2 replication in virus-infected cells” value in assay [1] was “complete inhibition”. For the same compound, the EC50 in assay [1] (setting [4]) turned out to be 0.622 µM; in assay [1] (setting [5]) it was 0.274 µM. Moreover, the “replication of all tested SARS-CoV-2 variants” value in assay [2] is “efficiently inhibited”.
On to `O=C(O)c1ccc2c3cccc4cccc(c5cccc1c52)c43` [Compound 20], for which the results for the EC50 in assay [1] (setting [4]) and in assay [1] (setting [5]) were above 5 µM and above 2.5 µM, respectively.
For `CCCCNC(=O)c1ccc(-c2ccc3c4cccc5cccc(c6cccc2c63)c54)s1` [Compound 19], the EC50 in assay [1] (setting [4]) was 0.47 µM; in assay [1] (setting [5]) it was 0.098 µM; in assay [1] (read-out: EC50), 0.0982 µM.
For `CC(C)(C)C(=O)OCn1c(=O)c(C#Cc2ccc3c4cccc5cccc(c6cccc2c63)c54)cn(CC(=O)NCCCCCO)c1=O` [Compound 11], the EC50 in assay [1] (setting [4]) was 1.07 µM; in assay [1] (setting [5]), 0.433 µM.
Take `O=C(O)c1ccc(-c2ccc3c4cccc5cccc(c6cccc2c63)c54)s1` [Compound 16]: the EC50 in assay [1] (setting [4]) amounted to 2.56 µM; in assay [1] (setting [5]), 0.536 µM; in assay [1] (read-out: EC50) it was 0.537 µM.
Consider `CC(C)(C)C(=O)OCn1c(=O)c(C#Cc2ccc3c4cccc5cccc(c6cccc2c63)c54)cn(CC(=O)NCCO)c1=O` [Compound 9], for which the EC50 in assay [1] (setting [4]) is 0.781 µM; in assay [1] (setting [5]), 0.14 µM.
Taken in the same sequence, the figures for `CC(C)(C)C(=O)OCn1c(=O)c(C#Cc2ccc3c4cccc5cccc(c6cccc2c63)c54)cn(CC(=O)NCCCO)c1=O` [Compound 10] were 1.93 µM and 0.382 µM.
As for `Cn1cc(C#Cc2ccc3c4cccc5cccc(c6cccc2c63)c54)c(=O)n(C)c1=O` [Compound 4], the results for the EC50 in assay [1] (setting [4]), in assay [1] (setting [5]) and in assay [1] (read-out: EC50) were 2.06 µM, 0.406 µM and 0.406 µM, respectively.
In the case of `CC(C)(C)C(=O)OCn1c(=O)c(C#Cc2ccc3c4cccc5cccc(c6cccc2c63)c54)cn(CC(=O)O)c1=O` [Compound 5], the EC50 in assay [1] (setting [4]) was above 5 µM; in assay [1] (setting [5]), around 2 µM; in assay [1] (read-out: EC50), 2.05 µM.
Take `O=c1[nH]cc(C#Cc2ccc3c4cccc5cccc(c6cccc2c63)c54)c(=O)[nH]1` [Compound 3]: the EC50 in assay [1] (setting [4]) is above 5 µM; in assay [1] (setting [5]) it was above 2.5 µM.
With `CC(=O)Nc1ccc(C#Cc2ccc3c4cccc5cccc(c6cccc2c63)c54)cc1` [Compound 15], the values for the EC50 in assay [1] (setting [4]), in assay [1] (setting [5]) and in assay [1] (read-out: EC50) were 0.325 µM, 0.063 µM and 0.0631 µM, respectively.
Regarding `O=C(NCCCCO)c1ccc(-c2ccc3c4cccc5cccc(c6cccc2c63)c54)s1` [Compound 17], the EC50 in assay [1] (setting [4]) and in assay [1] (setting [5]) was below 0.004 µM in each case. Moreover, the “virucidal effect against SARS-CoV-2 (ranking)” value in assay [3] is listed as “strongest virucidal effect”. The “replication of all tested SARS-CoV-2 variants” value in assay [2] was “efficiently inhibited”.
In the case of `CC(C)(C)C(=O)OCn1c(=O)c(C#Cc2ccc3c4cccc5cccc(c6cccc2c63)c54)cn(CC(=O)NCCCCO)c1=O` [Compound 6], the EC50 in assay [1] (setting [4]) is 0.781 µM; in assay [1] (setting [5]), 0.0915 µM.
The matching figures for `CCCCNC(=O)Cn1cc(C#Cc2ccc3c4cccc5cccc(c6cccc2c63)c54)c(=O)n(COC(=O)C(C)(C)C)c1=O` [Compound 8]: above 5 µM and around 2 µM.
On to `O=c1[nH]c(=O)n([C@H]2C[C@H](O)[C@@H](CO)O2)cc1C#Cc1ccc2c3cccc4cccc(c5cccc1c52)c43` [Compound 2, 5-(perylen-3-yl)ethynyl-2′-deoxy-uridine], for which the 50% effective concentration (EC50) in assay [1] (setting [4]) stood at 0.843 µM; in assay [1] (setting [5]) it was 0.256 µM; in assay [1] (read-out: EC50) it was 0.256 µM. Also, the “replication of all tested SARS-CoV-2 variants” value in assay [2] was “efficiently inhibited”.
Take `CN(C)c1ccc(C#Cc2ccc3c4cccc5cccc(c6cccc2c63)c54)cc1` [Compound 14]: the EC50 is above 5 µM in assay [1] (setting [4]) and above 2.5 µM in assay [1] (setting [5]).

For the origin of these results see paper PMC10307035, “Antiviral activity of singlet oxygen-photogenerating perylene compounds against SARS-CoV-2: Interaction with the viral envelope and photodynamic virion inactivation” (Virus Research, 2023).
